One test has as its system PINK1^5 flies. The test is described as follows: PINK1^5 fly genetic model of PD. The class given is in vivo, Drosophila. To be noted: TZ day 1 after hatching to day 10.
Test [1] has as its system mThyl-hSNCA transgenic mice. The test is described as follows: mThyl-hSNCA transgenic mice. The class given is in vivo, mouse. Conditions: TZ 0.03 mg/kg oral from 3 to 15 months old. An excerpt: FIG. 5. TZ improves TH levels and motor performance in genetic models of PD. A-E) Wild-type (w^1118) and PINK1^5 flies received TZ or vehicle for 10 days beginning on the first day after eclosion. Day 10 assays included: (A) Example of wing posture defect and percentage of w^1118 and PINK1^5 flies with wing posture defects. N=6, with 80 flies for each treatment in each trial. (B,C) Example of TH western blot (B) and quantification of TH (C). N=5, with 40 fly heads for each treatment in each trial. (D) ATP content in brains (relative to w^1118). N=3, with 200 fly heads for each treatment in each trial. (E) Climbing behavior. N=3, with 100 flies for each treatment in each trial. F) Climbing behavior of LRRK^ex1 male flies. N=6, with 100 flies for each treatment in each trial. […] (I,J) Quantification of α-synuclein in striatum and SNc. […]
The rotarod test was carried out using an automated rotarod (E103, UGO BASILE). […] The latency to fall was recorded for a maximum recording time of 600 seconds. The behavior was monitored by a video camera.
This test was carried out by leaving a pole in the cage where the mice were housed. […] The time that the mouse took to turn his head from upward to downward (Time: Turn) and the time the mouse took to reach the floor with his forepaws (Time: Locomotion Activity) were recorded. Each mouse was tested three times with 5 min. intervals, and the average time was quantified. […]

Each structure is given as a SMILES string.

Source text for PINK1^5 flies: N=6, with 80 flies for each treatment in each trial. […] N=3, with 100 flies for each treatment in each trial. […] N=6, with 100 flies for each treatment in each trial. […] Data are from individual groups of flies (A-F) and individual mice (I-K). Bars and whiskers indicate mean±SEM. […] In the figures, *p<0.05, **p<0.01, ***p<0.001. For panel D, the statistical analysis was 1-way ANOVA with Tukey, and for all other panels, a Kruskal-Wallis with a Dwass-Steele-Critchlow-Fligner.
A genetic model of PD in PINK1^5 flies. […] N=3, with 100 flies for each treatment in each trial.

As to `COc1cc2nc(N3CCN(C(=O)C4CCCO4)CC3)nc(N)c2cc1OC` (centres unmarked) [TZ, terazosin], the wing posture defects result in the test with PINK1^5 flies is listed as “partially reversed”. For the same compound, the “human α-synuclein in striatum and SNc and motor performance on rotarod and pole test” value in test [1] is “partially prevented”.

Values taken from patent US20220000871A1, “METHODS AND COMPOSITIONS FOR TREATING NEURODEGENERATIVE DISEASES USING MODULATORS OF PHOSPHOGLYCERATE KINASE 1 (PGK1) ACTIVITY” (UNIVERSITY OF IOWA RESEARCH FOUNDATION, priority 2019, published 2022).
